Measured values from patent publication US20220380368A1, “SPIROCYCLIC ANDROGEN RECEPTOR PROTEIN DEGRADERS” (THE REGENTS OF THE UNIVERSITY OF MICHIGAN, priority 2019, published 2022).
Like-named read-outs stand apart in the source and are kept apart here.

Legend:
AR protein = target: T1, AR protein (Homo sapiens, UniProt P10275); experiment: Western blotting analysis of AR protein levels in VCaP cells, band quantification, DC50/DC90; format: cell-based; details: VCaP cells, Table 6; read-out: VCaP DC50
T1 construct: endogenous in cells; host or cells: VCaP
T1 sequence (P10275 1-920): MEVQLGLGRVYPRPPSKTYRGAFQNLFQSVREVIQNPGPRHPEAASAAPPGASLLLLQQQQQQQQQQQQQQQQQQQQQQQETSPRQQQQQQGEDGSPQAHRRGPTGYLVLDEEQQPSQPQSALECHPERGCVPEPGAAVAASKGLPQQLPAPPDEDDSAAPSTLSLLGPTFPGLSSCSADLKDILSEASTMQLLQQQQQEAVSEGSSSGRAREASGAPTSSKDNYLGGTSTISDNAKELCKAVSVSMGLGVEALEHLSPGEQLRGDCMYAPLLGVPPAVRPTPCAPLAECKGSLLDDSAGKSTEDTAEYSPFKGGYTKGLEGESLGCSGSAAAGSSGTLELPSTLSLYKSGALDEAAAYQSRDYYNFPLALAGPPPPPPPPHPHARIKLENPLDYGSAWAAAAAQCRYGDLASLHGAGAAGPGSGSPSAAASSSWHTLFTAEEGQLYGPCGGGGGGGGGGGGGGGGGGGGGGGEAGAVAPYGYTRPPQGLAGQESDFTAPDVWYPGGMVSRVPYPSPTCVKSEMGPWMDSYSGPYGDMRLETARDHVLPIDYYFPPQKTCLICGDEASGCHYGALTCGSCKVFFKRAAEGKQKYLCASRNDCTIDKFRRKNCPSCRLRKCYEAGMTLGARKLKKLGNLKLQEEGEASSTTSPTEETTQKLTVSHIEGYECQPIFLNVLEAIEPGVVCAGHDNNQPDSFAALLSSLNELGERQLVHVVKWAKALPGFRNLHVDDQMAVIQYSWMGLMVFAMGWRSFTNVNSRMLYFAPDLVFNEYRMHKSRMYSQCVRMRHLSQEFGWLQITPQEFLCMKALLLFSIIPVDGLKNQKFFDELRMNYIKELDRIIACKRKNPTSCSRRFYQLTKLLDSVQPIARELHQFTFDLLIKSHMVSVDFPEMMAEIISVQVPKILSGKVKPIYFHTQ
Procedure, shortened: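 VCaP cells treated with compounds, lysed in RIPA and probed for AR by Western blot with GAPDH loading control. Band intensities normalised to GAPDH; DC50 from curve fit, DC90 calculated from DC50 and Hill slope via four-parameter equation.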

[1] = Mouse PK studies after oral and IV dosing; format: in vivo; details: for F: PO 3 mg/kg vs IV 1 mg/kg; for AUC(0-t) / clearance / half-life / Vd / Cmax / Tmax: in vivo; for clearance: read-out: IV Cl (converted); for Vd: read-out: IV VSS
Description: The pharmacokinetics of representative Compounds of the Disclosure were determined after oral and IV dosing at the concentrations indicated in mouse (Table 7). […] The vehicles used in these studies are either (i) 10% PEG400+90% PBS (adjusted to pH to 8.0 by 0.5 N NaOH); or (ii) 100% PEG200.

[2] = iv, 1 mg/kg, IV, dose 1 mg/kg, read-out: IV AUC(0 − t)
[3] = iv, 1 mg/kg, IV, dose 1 mg/kg, read-out: IV T1/2 (converted)
[4] = po, 3 mg/kg, PO, dose 3 mg/kg, read-out: PO AUC(0 − t)
[5] = po, 3 mg/kg, PO, dose 3 mg/kg, read-out: PO T1/2 (converted)

Row | Structure (SMILES) | DC50 (AR protein) [nM] | F [1] [%] | AUC(0-t) [1, 2] [ng·h/mL] | clearance ([1]; iv, 1 mg/kg, IV, dose 1 mg/kg) [mL/min/kg] | half-life [1, 3] [h] | Vd ([1]; iv, 1 mg/kg, IV, dose 1 mg/kg) [L/kg] | Cmax ([1]; po, 3 mg/kg) [ng/mL] | Tmax ([1]; po, 3 mg/kg) [h] | AUC(0-t) [1, 4] [ng·h/mL] | half-life [1, 5] [h]
1 | C[C@H]1CC2(CCN(c3ccc(C(=O)N4CCN(CC5CN(c6ccc7c(c6)C(=O)N(C6CCC(=O)NC6=O)C7=O)C5)CC4)cc3F)CC2)CN1c1ccc(C#N)c(Cl)c1 (stereo partly drawn) [Cpd. No. 528, 2-chloro-4-((3S)-8-(4-(4-((1-(2-(2,6-dioxopiperidin-3-yl)-1,3-dioxoisoindolin-5-yl)azetidin-3-yl)methyl)piperazine-1-carbonyl)-2-fluorophenyl)-3-methyl-2,8-diazaspiro[4.5]decan-2-yl)benzonitrile] | < 1 | 33 | 1710 | 8.33 | 8.9 | 5.7 | 149 | 1.7 | 1680 | 8.8
2 | C[C@H]1CC2(CCN(c3ccc(C(=O)N4CCN(CC5CCN(c6ccc7c(c6)C(=O)N(C6CCC(=O)NC6=O)C7=O)CC5)CC4)nn3)CC2)CN1c1ccc(C#N)c(Cl)c1 (stereo partly drawn) [Cpd. No. 491, 2-chloro-4-((3S)-8-(6-(4-((1-(2-(2,6-dioxopiperidin-3-yl)-1,3-dioxoisoindolin-5-yl)piperidin-4-yl)methyl)piperazine-1-carbonyl)pyridazin-3-yl)-3-methyl-2,8-diazaspiro[4.5]decan-2-yl)benzonitrile] | 1 to 10 | 34 | 2640 | 6 | 7.7 | 2.09 | 789 | 1 | 2710 | 5.7
3 | C[C@H]1CC2(CCN(c3cnc(C(=O)N4CCC(CN5CCN(c6cc7c(cc6F)C(=O)N(C6CCC(=O)NC6=O)C7=O)CC5)CC4)cn3)CC2)CN1c1ccc(C#N)c(Cl)c1 (stereo partly drawn) [Cpd. No. 493, 2-chloro-4-((3S)-8-(5-(4-((4-(2-(2,6-dioxopiperidin-3-yl)-6-fluoro-1,3-dioxoisoindolin-5-yl)piperazin-1-yl)methyl)piperidine-1-carbonyl)pyrazin-2-yl)-3-methyl-2,8-diazaspiro[4.5]decan-2-yl)benzonitrile] | 1 to 10 | 25 | 840 | 20.3 | 4.9 | 4.12 | 224 | 0.7 | 627 | 4.8
4 | C[C@H]1CC2(CCN(c3ccc(C(=O)N4CCC(CN5CCN(c6cc7c(cc6F)C(=O)N(C6CCC(=O)NC6=O)C7=O)CC5)CC4)nn3)CC2)CN1c1ccc(C#N)c(Cl)c1 (stereo partly drawn) [Cpd. No. 490, 2-chloro-4-((3S)-8-(6-(4-((4-(2-(2,6-dioxopiperidin-3-yl)-6-fluoro-1,3-dioxoisoindolin-5-yl)piperazin-1-yl)methyl)piperidine-1-carbonyl)pyridazin-3-yl)-3-methyl-2,8-diazaspiro[4.5]decan-2-yl)benzonitrile] | 1 to 10 | 25 | 4920 | 3 | 8.7 | 1.74 | 639 | 1 | 3730 | 7.1
5 | C[C@H]1CC2(CCN(c3ccc(C(=O)N4CCC(CN5CCN(c6ccc7c(c6)C(=O)N(C6CCC(=O)NC6=O)C7=O)CC5)CC4)nn3)CC2)CN1c1ccc(C#N)c(Cl)c1 (stereo partly drawn) [Cpd. No. 489, 2-chloro-4-((3S)-8-(6-(4-((4-(2-(2,6-dioxopiperidin-3-yl)-1,3-dioxoisoindolin-5-yl)piperazin-1-yl)methyl)piperidine-1-carbonyl)pyridazin-3-yl)-3-methyl-2,8-diazaspiro[4.5]decan-2-yl)benzonitrile] | 1 to 10 | 37 | 2140 | 7.33 | 7.45 | 2.72 | 477 | 1 | 2390 | 7.5
6 | C[C@H]1CC2(CCN(c3cnc(C(=O)N4CCN(CC5CCN(c6ccc7c(c6)C(=O)N(C6CCC(=O)NC6=O)C7=O)CC5)CC4)cn3)CC2)CN1c1ccc(C#N)c(Cl)c1 (stereo partly drawn) [Cpd. No. 494, 2-chloro-4-((3S)-8-(5-(4-((1-(2-(2,6-dioxopiperidin-3-yl)-1,3-dioxoisoindolin-5-yl)piperidin-4-yl)methyl)piperazine-1-carbonyl)pyrazin-2-yl)-3-methyl-2,8-diazaspiro[4.5]decan-2-yl)benzonitrile] | 1 to 10 | 9 | 180 | 87.3 | 5.4 | 16.9 | 36 | 0.5 | 49 | 2.4
7 | C[C@H]1CC2(CCN(c3cnc(C(=O)N4CCC(N5CCN(c6cc7c(cc6F)C(=O)N(C6CCC(=O)NC6=O)C7=O)CC5)CC4)cn3)CC2)CN1c1ccc(C#N)c(Cl)c1 (stereo partly drawn) [Cpd. No. 498, 2-chloro-4-((3S)-8-(5-(4-(4-(2-(2,6-dioxopiperidin-3-yl)-6-fluoro-1,3-dioxoisoindolin-5-yl)piperazin-1-yl)piperidine-1-carbonyl)pyrazin-2-yl)-3-methyl-2,8-diazaspiro[4.5]decan-2-yl)benzonitrile] | 1 to 10 | 45 | 419 | 36.8 | 1.9 | 3.22 | 191 | 0.8 | 572 | 2.3
8 | C[C@H]1CC2(CCN(c3ccc(C(=O)N4CCN(CC5CN(c6cc7c(cc6F)C(=O)N(C6CCC(=O)NC6=O)C7=O)C5)CC4)cc3)CC2)CN1c1ccc(C#N)c(Cl)c1 (stereo partly drawn) [Cpd. No. 502, 2-chloro-4-((3S)-8-(4-(4-((1-(2-(2,6-dioxopiperidin-3-yl)-6-fluoro-1,3-dioxoisoindolin-5-yl)azetidin-3-yl)methyl)piperazine-1-carbonyl)phenyl)-3-methyl-2,8-diazaspiro[4.5]decan-2-yl)benzonitrile] | < 1 | 32 | 3490 | 3.33 | 10 | 3 | 289 | 3.3 | 3390 | 9.5
9 | C[C@H]1CC2(CCN(c3cnc(C(=O)N4CCN(CC5CN(c6cc7c(cc6F)C(=O)N(C6CCC(=O)NC6=O)C7=O)C5)CC4)cn3)CC2)CN1c1ccc(C#N)c(Cl)c1 (stereo partly drawn) [Cpd. No. 488, 2-chloro-4-((3S)-8-(5-(4-((1-(2-(2,6-dioxopiperidin-3-yl)-6-fluoro-1,3-dioxoisoindolin-5-yl)azetidin-3-yl)methyl)piperazine-1-carbonyl)pyrazin-2-yl)-3-methyl-2,8-diazaspiro[4.5]decan-2-yl)benzonitrile] | 1 to 10 | 31 | 233 | 70.2 | 5 | 7.75 | 99.6 | 1 | 213 | 3.1
10 | C[C@H]1CC2(CCN(c3ccc(C(=O)N4CCC(N5CCN(c6ccc7c(c6)C(=O)N(C6CCC(=O)NC6=O)C7=O)CC5)CC4)nn3)CC2)CN1c1ccc(C#N)c(Cl)c1 (stereo partly drawn) [Cpd. No. 499, 2-chloro-4-((3S)-8-(6-(4-(4-(2-(2,6-dioxopiperidin-3-yl)-1,3-dioxoisoindolin-5-yl)piperazin-1-yl)piperidine-1-carbonyl)pyridazin-3-yl)-3-methyl-2,8-diazaspiro[4.5]decan-2-yl)benzonitrile] | < 1 | 29 | 1920 | 8.17 | 3.6 | 1.73 | 404 | 1.3 | 1670 | 2
